The record followed here is patent publication US10457655B2, “Compounds and compositions for inhibition of FASN” (FORMA Therapeutics, Inc., priority 2013, dated 2019).

Molecules are shown by their SMILES. Read-outs that look alike come from different tables or passages of the source. Where only a bound is given, the exact number is not on record here.

In one experiment the test system is PC3 cells. Nature of the experiment: Cell Proliferation Assays for FASN Inhibitors (PC3 cells, MTT). The note with it: Homo sapiens, PC-3, 96 h. Format: cell-based. The procedure:
The effects of the FASN inhibitors on cultured cancer cell proliferation were studies with cell proliferation assays. PC3 cells were maintained at standard culture media (F12K media supplemented with 10% fetal bovine serum, 1×MEM nonessential amino acid and 1× penicillin/streptomycin). 2000-3000 cells/100 μL/well was seeded in a 96-well clear culture plate. The cells were incubated overnight in 5% CO2 at 37° C. for attachment. Cell media were removed and replaced with F12K media containing 10% lipid reduced serum and compound. The final DMSO concentration is 0.1%. The cells were maintained in 5% CO2 at 37° C. for 4 days. The viability of cells was determined by MTT assays. The IC50 of a given compound was calculated by fitting the dose response curve with a four parameter logistic equation.

The next experiment deals with FASN enzyme (Homo sapiens, UniProt P49327). Nature of the experiment: Enzymatic Assay for FASN Inhibitors. It counts as biochemical. In outline: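 40 nM FASN preincubated with compound 60 min at 25° C in HEPES pH 7.3 buffer with 0.04% Triton X-100. Then 20 μM acetyl-CoA, 60 μM malonyl-CoA and 100 μM NADPH added for 90 min, quenched with CPM thiol probe; fluorescence 360/530 nm, IC50 by four-parameter fit.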
Chain of FASN enzyme (P49327 whole entry): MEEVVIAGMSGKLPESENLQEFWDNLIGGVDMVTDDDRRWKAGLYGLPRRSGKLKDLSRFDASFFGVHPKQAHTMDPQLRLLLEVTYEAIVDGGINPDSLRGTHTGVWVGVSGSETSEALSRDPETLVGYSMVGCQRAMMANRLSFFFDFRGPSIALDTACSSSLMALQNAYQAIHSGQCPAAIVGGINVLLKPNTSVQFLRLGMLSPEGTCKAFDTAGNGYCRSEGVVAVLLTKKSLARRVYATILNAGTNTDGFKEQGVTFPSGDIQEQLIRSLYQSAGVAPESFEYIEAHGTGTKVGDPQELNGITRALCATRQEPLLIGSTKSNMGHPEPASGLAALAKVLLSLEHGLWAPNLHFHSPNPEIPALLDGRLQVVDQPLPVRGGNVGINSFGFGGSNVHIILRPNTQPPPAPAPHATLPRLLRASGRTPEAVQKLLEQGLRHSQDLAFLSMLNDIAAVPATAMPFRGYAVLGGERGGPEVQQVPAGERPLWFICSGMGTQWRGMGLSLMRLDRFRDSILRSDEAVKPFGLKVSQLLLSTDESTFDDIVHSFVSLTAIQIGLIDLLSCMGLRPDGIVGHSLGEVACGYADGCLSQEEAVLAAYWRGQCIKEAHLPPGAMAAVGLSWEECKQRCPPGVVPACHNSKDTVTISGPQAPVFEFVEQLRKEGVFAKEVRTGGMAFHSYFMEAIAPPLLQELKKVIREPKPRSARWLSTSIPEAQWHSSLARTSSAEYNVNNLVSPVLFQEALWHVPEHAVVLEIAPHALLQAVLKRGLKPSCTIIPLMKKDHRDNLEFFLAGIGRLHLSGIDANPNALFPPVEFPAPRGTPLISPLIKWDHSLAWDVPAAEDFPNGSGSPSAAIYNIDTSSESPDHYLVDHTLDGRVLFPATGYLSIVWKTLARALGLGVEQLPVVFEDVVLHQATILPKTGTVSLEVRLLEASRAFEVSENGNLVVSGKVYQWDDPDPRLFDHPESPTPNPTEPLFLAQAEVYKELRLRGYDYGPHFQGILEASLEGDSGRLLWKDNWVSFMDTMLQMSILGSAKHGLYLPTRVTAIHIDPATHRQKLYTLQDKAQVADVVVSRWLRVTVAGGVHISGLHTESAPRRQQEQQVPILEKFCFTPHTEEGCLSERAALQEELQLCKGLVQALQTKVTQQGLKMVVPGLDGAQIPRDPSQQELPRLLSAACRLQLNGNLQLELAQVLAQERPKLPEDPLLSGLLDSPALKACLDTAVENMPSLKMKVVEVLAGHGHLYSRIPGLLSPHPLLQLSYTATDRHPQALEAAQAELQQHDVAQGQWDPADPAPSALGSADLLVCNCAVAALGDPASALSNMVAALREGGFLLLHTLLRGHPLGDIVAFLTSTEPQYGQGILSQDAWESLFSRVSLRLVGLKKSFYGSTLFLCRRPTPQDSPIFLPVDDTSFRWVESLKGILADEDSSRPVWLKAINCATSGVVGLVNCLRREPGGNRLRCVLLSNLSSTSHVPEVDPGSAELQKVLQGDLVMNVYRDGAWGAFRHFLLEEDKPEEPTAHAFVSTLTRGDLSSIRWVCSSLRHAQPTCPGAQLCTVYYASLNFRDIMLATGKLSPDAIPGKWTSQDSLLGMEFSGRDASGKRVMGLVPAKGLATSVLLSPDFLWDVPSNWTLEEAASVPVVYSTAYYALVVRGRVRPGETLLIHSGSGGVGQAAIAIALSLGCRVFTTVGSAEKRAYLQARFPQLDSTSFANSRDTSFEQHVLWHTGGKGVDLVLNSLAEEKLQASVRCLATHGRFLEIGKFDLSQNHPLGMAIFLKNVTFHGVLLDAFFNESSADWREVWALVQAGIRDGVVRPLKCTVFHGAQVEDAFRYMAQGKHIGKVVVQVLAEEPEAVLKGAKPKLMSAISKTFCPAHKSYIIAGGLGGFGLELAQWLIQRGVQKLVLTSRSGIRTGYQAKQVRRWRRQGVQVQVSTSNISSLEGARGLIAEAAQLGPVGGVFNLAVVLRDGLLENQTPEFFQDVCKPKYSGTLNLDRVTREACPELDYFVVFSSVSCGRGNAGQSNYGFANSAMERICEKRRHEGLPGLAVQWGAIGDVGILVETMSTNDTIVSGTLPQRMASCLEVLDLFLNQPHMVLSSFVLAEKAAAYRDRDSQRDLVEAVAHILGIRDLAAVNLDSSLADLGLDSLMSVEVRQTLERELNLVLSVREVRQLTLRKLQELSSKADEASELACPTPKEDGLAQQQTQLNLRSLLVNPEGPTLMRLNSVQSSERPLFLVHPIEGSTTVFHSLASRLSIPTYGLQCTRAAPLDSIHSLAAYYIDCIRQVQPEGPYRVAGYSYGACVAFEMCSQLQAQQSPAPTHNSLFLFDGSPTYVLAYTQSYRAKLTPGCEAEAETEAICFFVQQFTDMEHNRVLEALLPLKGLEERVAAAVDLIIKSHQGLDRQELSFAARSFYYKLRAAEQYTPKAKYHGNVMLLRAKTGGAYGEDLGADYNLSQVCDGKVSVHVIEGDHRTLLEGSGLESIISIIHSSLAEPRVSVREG

Where [1] appears, read: read-out: IC50 (uM) < 0.5, 10% lipid reduced serum, 4 days, Table 3-1.

A word on the IC50: it is the concentration that gives 50% inhibition. Regarding `O=C(c1ccc(-c2cc3ccccc3[nH]c2=O)cc1)N1CCN(C(=O)C2(O)CC2)CC1` [3-[4-({4-[(1-hydroxycyclopropyl)carbonyl]piperazin-1-yl}carbonyl)phenyl]-1,2-dihydroquinolin-2-one], the IC50 was less than 0.5 µM in the experiment with PC3 cells (setting [1]) and less than 500 nM at FASN enzyme.
For the compound `O=C(c1ccc(-c2ccc3ncsc3c2)cc1)N1CCN(C(=O)C2(O)CC2)CC1` [1-[(4-{[4-(1,3-benzothiazol-6-yl)phenyl]carbonyl}piperazin-1-yl)carbonyl]cyclopropan-1-ol], the IC50 with PC3 cells (setting [1]) was less than 0.5 µM; against FASN enzyme, less than 500 nM.
The corresponding values for `O=C(c1ccc(-c2nc3ccccc3s2)cc1)N1CCN(C(=O)C2(O)CC2)CC1` [1-[(4-{[4-(1,3-benzothiazol-2-yl)phenyl]carbonyl}piperazin-1-yl)carbonyl]cyclopropan-1-ol] are less than 0.5 µM and less than 500 nM.
With `O=C(c1ccc(-c2cc(Cl)ccc2F)cc1)N1CCN(C(=O)C2(O)CC2)CC1` [1-[(4-{[4-(5-chloro-2-fluorophenyl)phenyl]carbonyl}piperazin-1-yl)carbonyl]cyclopropan-1-ol], the half-maximal inhibitory concentration (IC50) in the experiment with PC3 cells (setting [1]) was less than 0.5 µM; at FASN enzyme, less than 500 nM.
Taken in the same sequence, the figures for `O=C(c1ccc(-c2cc3ccccn3n2)cc1)N1CCN(C(=O)C2(O)CC2)CC1` were less than 0.5 µM and less than 500 nM.
Taken in the same sequence, the figures for `O=C(c1ccc(-c2ccc3ncccc3c2)cc1Cl)N1CCN(C(=O)C2(O)CC2)CC1` [1-[(4-{[2-chloro-4-(quinolin-6-yl)phenyl]carbonyl}piperazin-1-yl)carbonyl]cyclopropan-1-ol] were less than 0.5 µM and less than 500 nM.
Taken in the same sequence, the figures for `O=C(c1ccc(-c2cccc(NS(=O)(=O)C3CC3)c2)cc1)N1CCN(C(=O)C2(O)CC2)CC1` [N-{3-[4-({4-[(1-hydroxycyclopropyl)carbonyl]piperazin-1-yl}carbonyl)phenyl]phenyl}cyclopropanesulfonamide] were less than 0.5 µM and less than 500 nM.
For `O=C(c1ccc(-c2ccc3cnccc3c2)cc1)N1CCN(C(=O)C2(O)CCC2)CC1` [1-[(4-{[4-(isoquinolin-6-yl)phenyl]carbonyl}piperazin-1-yl)carbonyl]cyclobutan-1-ol], the IC50 with PC3 cells (setting [1]) was less than 0.5 µM; against FASN enzyme it was less than 500 nM.
The corresponding values for `CS(=O)(=O)Nc1cccc(-c2ccc(C(=O)N3CCN(C(=O)C4(O)CC4)CC3)cc2)c1` [N-{3-[4-({4-[(1-hydroxycyclopropyl)carbonyl]piperazin-1-yl}carbonyl)phenyl]phenyl}methanesulfonamide] are less than 0.5 µM and less than 500 nM.
Taken in the same sequence, the figures for `Cn1cnc2cc(-c3ccc(C(=O)N4CCN(C(=O)C5(O)CC5)CC4)cc3)ccc21` [1-[(4-{[4-(1-methyl-1H-1,3-benzodiazol-5-yl)phenyl]carbonyl}piperazin-1-yl)carbonyl]cyclopropan-1-ol] were less than 0.5 µM and less than 500 nM.
The corresponding values for `O=C(c1ccc(-c2ccc3ncccc3c2)c(Cl)c1)N1CCN(C(=O)C2(O)CC2)CC1` [1-[(4-{[3-chloro-4-(quinolin-6-yl)phenyl]carbonyl}piperazin-1-yl)carbonyl]cyclopropan-1-ol] are less than 0.5 µM and less than 500 nM.
Take `O=C(c1ccc(-c2nc3cc(Cl)ccc3o2)cc1)N1CCN(C(=O)C2(O)CC2)CC1` [1-[(4-{[4-(5-chloro-1,3-benzoxazol-2-yl)phenyl]carbonyl}piperazin-1-yl)carbonyl]cyclopropan-1-ol]: the values for the IC50 with PC3 cells (setting [1]) and against FASN enzyme were less than 0.5 µM and less than 500 nM, respectively.
Taken in the same sequence, the figures for `COc1ccc2nc(-c3ccc(C(=O)N4CCN(C(=O)C5(O)CC5)CC4)cc3)ccc2c1` [1-[(4-{[4-(6-methoxyquinolin-2-yl)phenyl]carbonyl}piperazin-1-yl)carbonyl]cyclopropan-1-ol] were less than 0.5 µM and less than 500 nM.
Taken in the same sequence, the figures for `COc1ccc2cc(-c3ccc(C(=O)N4CCN(C(=O)C5(O)CC5)CC4)cc3)ccc2c1` [1-[(4-{[4-(6-methoxynaphthalen-2-yl)phenyl]carbonyl}piperazin-1-yl)carbonyl]cyclopropan-1-ol] were less than 0.5 µM and less than 500 nM.
Taken in the same sequence, the figures for `Cc1cc(C(=O)N2CCN(C(=O)C3(O)CC3)CC2)ccc1-c1ccc2scnc2c1` [1-[(4-{[4-(1,3-benzothiazol-5-yl)-3-methylphenyl]carbonyl}piperazin-1-yl)carbonyl]cyclopropan-1-ol] were less than 0.5 µM and less than 500 nM.
In the case of `O=C(c1ccc(-c2nccc3ccccc23)cc1)N1CCN(C(=O)C2(O)CC2)CC1` [1-[(4-{[4-(isoquinolin-1-yl)phenyl]carbonyl}piperazin-1-yl)carbonyl]cyclopropan-1-ol], the IC50 with PC3 cells (setting [1]) was less than 0.5 µM; on FASN enzyme, less than 500 nM.
The corresponding values for `O=C(c1ccc(-c2cnc3ccccc3c2Cl)cc1)N1CCN(C(=O)C2(O)CC2)CC1` [1-[(4-{[4-(4-chloroquinolin-3-yl)phenyl]carbonyl}piperazin-1-yl)carbonyl]cyclopropan-1-ol] are less than 0.5 µM and less than 500 nM.
Taken in the same sequence, the figures for `COc1nc2ccccc2cc1-c1ccc(C(=O)N2CCN(C(=O)C3(O)CC3)CC2)c(F)c1` [1-[(4-{[2-fluoro-4-(2-methoxyquinolin-3-yl)phenyl]carbonyl}piperazin-1-yl)carbonyl]cyclopropan-1-ol] were less than 0.5 µM and less than 500 nM.
The corresponding values for `O=C(c1ccc(-c2ccc3ccccc3n2)c(F)c1F)N1CCN(C(=O)C2(O)CC2)CC1` [1-[(4-{[2,3-difluoro-4-(quinolin-2-yl)phenyl]carbonyl}piperazin-1-yl)carbonyl]cyclopropan-1-ol] are less than 0.5 µM and less than 500 nM.
As to `O=C(c1ccc(-c2cccc(NS(=O)(=O)c3ccccc3)c2)cc1)N1CCN(C(=O)C2(O)CC2)CC1` [N-{3-[4-({4-[(1-hydroxycyclopropyl)carbonyl]piperazin-1-yl}carbonyl)phenyl]phenyl}benzenesulfonamide], the values for the IC50 in the experiment on PC3 cells (setting [1]) and at FASN enzyme were less than 0.5 µM and less than 500 nM, respectively.
The corresponding values for `O=C(c1ccc(-c2ccc3nccn3n2)cc1)N1CCN(C(=O)C2(O)CC2)CC1` [1-({4-[(4-{imidazo[1,2-b]pyridazin-6-yl}phenyl)carbonyl]piperazin-1-yl}carbonyl)cyclopropan-1-ol] are less than 0.5 µM and less than 500 nM.
Taken in the same sequence, the figures for `Cn1ccc2cc(-c3ccc(C(=O)N4CCN(C(=O)C5(O)CC5)CC4)c(C(F)(F)F)c3)ccc21` [1-[(4-{[4-(1-methyl-1H-indol-5-yl)-2-(trifluoromethyl)phenyl]carbonyl}piperazin-1-yl)carbonyl]cyclopropan-1-ol] were less than 0.5 µM and less than 500 nM.
The corresponding values for `Cn1ccc2cc(-c3ccc(C(=O)N4CCN(C(=O)C5(O)CC5)CC4)nc3)ccc21` [1-[(4-{[5-(1-methyl-1H-indol-5-yl)pyridin-2-yl]carbonyl}piperazin-1-yl)carbonyl]cyclopropan-1-ol] are less than 0.5 µM and less than 500 nM.
Turning to `CC(C)S(=O)(=O)Nc1cccc(-c2ccc(C(=O)N3CCN(C(=O)C4(O)CC4)CC3)cc2)c1`, the IC50 with PC3 cells (setting [1]) was less than 0.5 µM; against FASN enzyme, less than 500 nM.
The corresponding values for `O=C(c1ccc(-c2cnc3ccccc3c2)cc1Cl)N1CCN(C(=O)C2(O)CC2)CC1` are less than 0.5 µM and less than 500 nM.
The corresponding values for `O=C(c1ccc(-c2ccc3nsnc3c2)cc1)N1CCN(C(=O)C2(O)CC2)CC1` [1-[(4-{[4-(2,1,3-benzothiadiazol-5-yl)phenyl]carbonyl}piperazin-1-yl)carbonyl]cyclopropan-1-ol] are less than 0.5 µM and less than 500 nM.
The corresponding values for `Cc1cc(C(=O)N2CCN(C(=O)C3(O)CC3)CC2)ccc1-c1ccc2ncccc2c1` [1-[(4-{[3-methyl-4-(quinolin-6-yl)phenyl]carbonyl}piperazin-1-yl)carbonyl]cyclopropan-1-ol] are less than 0.5 µM and less than 500 nM.
For the compound `O=C(c1ccc(-c2cnc3ccccc3c2)cc1)N1CCN(C(=O)C2CCO2)CC1` (stereo not shown) [3-[4-({4-[(oxetan-2-yl)carbonyl]piperazin-1-yl}carbonyl)phenyl]quinoline], the IC50 in the experiment with PC3 cells (read-out: IC50 (uM) ≥ 0.5, 10% lipid reduced serum, 4 days, Table 3-2) is not below 0.5 µM; against FASN enzyme, less than 500 nM.
For `N#Cc1c[nH]c2ccc(-c3ccc(C(=O)N4CCN(C(=O)C5(O)CC5)CC4)cc3)cc12` [5-[4-({4-[(1-hydroxycyclopropyl)carbonyl]piperazin-1-yl}carbonyl)phenyl]-1H-indole-3-carbonitrile], the IC50 in the experiment on PC3 cells (setting [1]) is less than 0.5 µM; on FASN enzyme, less than 500 nM.
Taken in the same sequence, the figures for `O=C(c1ccc(-c2ccc3ccccc3n2)cc1)N1CCN(C(=O)C2(O)CC2)CC1` [1-[(4-{[4-(quinolin-2-yl)phenyl]carbonyl}piperazin-1-yl)carbonyl]cyclopropan-1-ol] were less than 0.5 µM and less than 500 nM.
The corresponding values for `O=C(c1ccc(-c2nc3ccccc3o2)cc1)N1CCN(C(=O)C2(O)CC2)CC1` [1-[(4-{[4-(1,3-benzoxazol-2-yl)phenyl]carbonyl}piperazin-1-yl)carbonyl]cyclopropan-1-ol] are less than 0.5 µM and less than 500 nM.
The corresponding values for `Cc1cc(C(=O)N2CCN(C(=O)C3(O)CC3)CC2)ccc1-c1ccc2c(ccn2C)c1` [1-[(4-{[3-methyl-4-(1-methyl-1H-indol-5-yl)phenyl]carbonyl}piperazin-1-yl)carbonyl]cyclopropan-1-ol] are less than 0.5 µM and less than 500 nM.
